Data: PubChem BioAssay AID252 (DTP/NCI, 2004)
Several values for one entry are separate records, joined by “and”; a condition that tells them apart may be missing. Equal values may be shown once. Toxic doses and inconclusive results are not listed.

System: BDF1 mice, intracerebral L1210 leukemia, survival T/C
Assay: NCI In Vivo Anticancer Drug Screen. Data for tumor model L1210 Leukemia (intracerebral) in B6D2F1 (BDF1) mice
Conditions: higher = longer survival
Outline: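 Mice carrying transplanted tumour were dosed with compound; survival was recorded and expressed as treated-group value (T) divided by vehicle-control value (C).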

CC(CN1CC(=O)NC(=O)C1)N1CC(=O)NC(=O)C1 (stereo unspecified)
T/C (endpoint: mean survival time, dose: 1.56 mg/kg/injection, schedule: Q03HX024 (ip), vehicle: steriod suspending solution): 108 % of control and 118 % of control
T/C (endpoint: mean survival time, dose: 3.12 mg/kg/injection, schedule: Q03HX024 (ip), vehicle: steriod suspending solution): 162 % of control
T/C (endpoint: mean survival time, dose: 12.5 mg/kg/injection, schedule: Q01DX009 (ip), vehicle: steriod suspending solution): 124 % of control
T/C (endpoint: mean survival time, dose: 25.0 mg/kg/injection, schedule: Q03HX024 (ip), vehicle: steriod suspending solution): 180 % of control
T/C (endpoint: mean survival time, dose: 50.0 mg/kg/injection, schedule: Q04DX003 (ip), vehicle: steriod suspending solution): 122 % of control
T/C (endpoint: mean survival time, dose: 100.0 mg/kg/injection, schedule: Q01DX009 (ip), vehicle: steriod suspending solution): 97 % of control
T/C (endpoint: mean survival time, dose: 108.0 mg/kg/injection, schedule: Q04DX003 (ip), vehicle: other): 104 % of control and 122 % of control
T/C (endpoint: mean survival time, dose: 108.0 mg/kg/injection, schedule: Q04DX003 (ip), vehicle: steriod suspending solution): 108 % of control
T/C (endpoint: mean survival time, dose: 180.0 mg/kg/injection, schedule: Q04DX003 (ip), vehicle: other): 104 % of control and 118 % of control
T/C (endpoint: mean survival time, dose: 180.0 mg/kg/injection, schedule: Q04DX003 (ip), vehicle: steriod suspending solution): 108 % of control and 123 % of control
T/C (endpoint: mean survival time, dose: 200.0 mg/kg/injection, schedule: Q01DX001 (ip), vehicle: steriod suspending solution): 111 % of control
T/C (endpoint: mean survival time, dose: 400.0 mg/kg/injection, schedule: Q01DX001 (ip), vehicle: steriod suspending solution): 110 % of control
T/C (endpoint: mean survival time, dose: 500.0 mg/kg/injection, schedule: Q04DX003 (ip), vehicle: other): 107 % of control and 117 % of control
T/C (endpoint: mean survival time, dose: 500.0 mg/kg/injection, schedule: Q04DX003 (ip), vehicle: steriod suspending solution): 111 % of control and 122 % of control
T/C (endpoint: mean survival time, dose: 800.0 mg/kg/injection, schedule: Q04DX003 (ip), vehicle: steriod suspending solution): 115 % of control and 86 % of control (2×)
T/C (endpoint: mean survival time, dose: 833.0 mg/kg/injection, schedule: Q04DX003 (ip), vehicle: Klucel (hydroxypropylcellulose) (HPC)): 103 % of control
T/C (endpoint: median survival time, dose: 16.0 mg/kg/injection, schedule: Q01DX009 (ip), vehicle: Klucel (hydroxypropylcellulose) (HPC)): 116 % of control
T/C (endpoint: median survival time, dose: 64.0 mg/kg/injection, schedule: Q01DX009 (ip), vehicle: Klucel (hydroxypropylcellulose) (HPC)): 114 % of control
T/C (endpoint: median survival time, dose: 108.0 mg/kg/injection, schedule: Q04DX003 (ip), vehicle: Klucel (hydroxypropylcellulose) (HPC)): 118 % of control
T/C (endpoint: median survival time, dose: 128.0 mg/kg/injection, schedule: Q01DX009 (ip), vehicle: Klucel (hydroxypropylcellulose) (HPC)): 109 % of control and 123 % of control and 95 % of control

CN(N=O)C(=O)Nc1ccc(NC(=O)N(C)N=O)cc1
T/C (endpoint: mean survival time, dose: 4.5 mg/kg/injection, schedule: Q01DX001 (ip), vehicle: carboxymethylcellulose (CMC)): 93 % of control
T/C (endpoint: mean survival time, dose: 9.0 mg/kg/injection, schedule: Q01DX001 (ip), vehicle: carboxymethylcellulose (CMC)): 98 % of control
T/C (endpoint: mean survival time, dose: 18.0 mg/kg/injection, schedule: Q01DX001 (ip), vehicle: carboxymethylcellulose (CMC)): 98 % of control

COc1cc([C@@H]2c3cc4c(cc3[C@@H](OC3OC5COC(C)OC5C(O)C3O)[C@H]3COC(=O)[C@H]23)OCO4)cc(OC)c1O (stereo partly specified)
T/C (endpoint: mean survival time, dose: 2.0 mg/kg/injection, schedule: Q01DX009 (oral), vehicle: Klucel (hydroxypropylcellulose) (HPC)): 108 % of control
T/C (endpoint: mean survival time, dose: 4.0 mg/kg/injection, schedule: Q01DX009 (oral), vehicle: Klucel (hydroxypropylcellulose) (HPC)): 118 % of control
T/C (endpoint: mean survival time, dose: 12.0 mg/kg/injection, schedule: Q04DX003 (ip), vehicle: saline): 109 % of control
T/C (endpoint: mean survival time, dose: 16.0 mg/kg/injection, schedule: Q01DX009 (oral), vehicle: Klucel (hydroxypropylcellulose) (HPC)): 116 % of control
T/C (endpoint: mean survival time, dose: 18.0 mg/kg/injection, schedule: Q04DX003 (ip), vehicle: saline): 108 % of control
T/C (endpoint: mean survival time, dose: 27.0 mg/kg/injection, schedule: Q04DX003 (ip), vehicle: saline): 109 % of control
T/C (endpoint: mean survival time, dose: 32.0 mg/kg/injection, schedule: Q01DX009 (oral), vehicle: Klucel (hydroxypropylcellulose) (HPC)): 94 % of control
T/C (endpoint: mean survival time, dose: 40.0 mg/kg/injection, schedule: Q04DX003 (ip), vehicle: saline): 118 % of control
T/C (endpoint: mean survival time, dose: 60.0 mg/kg/injection, schedule: Q04DX003 (ip), vehicle: saline): 110 % of control

C=CCNC(=O)NCC=C
T/C (endpoint: mean survival time, dose: 25.0 mg/kg/injection, schedule: Q01DX009 (ip), vehicle: saline): 101 % of control
T/C (endpoint: mean survival time, dose: 50.0 mg/kg/injection, schedule: Q01DX009 (ip), vehicle: saline): 103 % of control
T/C (endpoint: mean survival time, dose: 100.0 mg/kg/injection, schedule: Q01DX009 (ip), vehicle: saline): 97 % of control
T/C (endpoint: mean survival time, dose: 200.0 mg/kg/injection, schedule: Q01DX009 (ip), vehicle: saline): 105 % of control

CCS(=O)(=O)Nc1cccc(Nc2c3cccc(C)c3nc3c(C)cccc23)c1OC
T/C (endpoint: mean survival time, dose: 12.5 mg/kg/injection, schedule: Q01DX009 (ip), vehicle: water): 117 % of control
T/C (endpoint: mean survival time, dose: 12.5 mg/kg/injection, schedule: Q01DX009 (sc), vehicle: water): 105 % of control
T/C (endpoint: mean survival time, dose: 25.0 mg/kg/injection, schedule: Q01DX009 (ip), vehicle: water): 92 % of control
T/C (endpoint: mean survival time, dose: 25.0 mg/kg/injection, schedule: Q01DX009 (sc), vehicle: water): 118 % of control
T/C (endpoint: mean survival time, dose: 50.0 mg/kg/injection, schedule: Q01DX009 (sc), vehicle: water): 113 % of control
T/C (endpoint: mean survival time, dose: 100.0 mg/kg/injection, schedule: Q01DX009 (sc), vehicle: water): 104 % of control

N#Cc1ccc(NC(=O)N(CCCl)N=O)cc1
T/C (endpoint: mean survival time, dose: 9.37 mg/kg/injection, schedule: Q01DX001 (ip), vehicle: carboxymethylcellulose (CMC)): 95 % of control
T/C (endpoint: mean survival time, dose: 18.75 mg/kg/injection, schedule: Q01DX001 (ip), vehicle: carboxymethylcellulose (CMC)): 91 % of control
T/C (endpoint: mean survival time, dose: 37.5 mg/kg/injection, schedule: Q01DX001 (ip), vehicle: carboxymethylcellulose (CMC)): 104 % of control
T/C (endpoint: mean survival time, dose: 75.0 mg/kg/injection, schedule: Q01DX001 (ip), vehicle: carboxymethylcellulose (CMC)): 102 % of control
T/C (endpoint: mean survival time, dose: 150.0 mg/kg/injection, schedule: Q01DX001 (ip), vehicle: carboxymethylcellulose (CMC)): 90 % of control

CN(Cc1cnc2nc(N)nc(N)c2n1)c1ccc(C(=O)N[C@@H](CCC(=O)O)C(=O)O)cc1
T/C (endpoint: mean survival time, dose: 0.6 mg/kg/injection, schedule: Q01DX009 (ip), vehicle: saline): 158 % of control
T/C (endpoint: mean survival time, dose: 1.25 mg/kg/injection, schedule: Q01DX009 (ip), vehicle: other): 150 % of control
T/C (endpoint: mean survival time, dose: 1.25 mg/kg/injection, schedule: Q01DX009 (ip), vehicle: saline): 168 % of control
T/C (endpoint: mean survival time, dose: 2.5 mg/kg/injection, schedule: Q01DX009 (ip), vehicle: saline): 112 % of control
T/C (endpoint: mean survival time, dose: 3.0 mg/kg/injection, schedule: Q01DX009 (ip), vehicle: sodium bicarbonate): 108 % of control
T/C (endpoint: mean survival time, dose: 5.0 mg/kg/injection, schedule: Q01DX009 (ip), vehicle: saline): 95 % of control
T/C (endpoint: mean survival time, dose: 5.0 mg/kg/injection, schedule: Q01DX009 (ip), vehicle: sodium bicarbonate): 94 % of control
T/C (endpoint: mean survival time, dose: 8.0 mg/kg/injection, schedule: Q01DX001 (ip), vehicle: sodium bicarbonate): 111 % of control
T/C (endpoint: mean survival time, dose: 14.0 mg/kg/injection, schedule: Q04DX003 (ip), vehicle: sodium bicarbonate): 113 % of control
T/C (endpoint: mean survival time, dose: 16.0 mg/kg/injection, schedule: Q01DX001 (ip), vehicle: sodium bicarbonate): 114 % of control
T/C (endpoint: mean survival time, dose: 19.0 mg/kg/injection, schedule: Q01DX001 (ip), vehicle: water): 108 % of control
T/C (endpoint: mean survival time, dose: 23.0 mg/kg/injection, schedule: Q04DX003 (ip), vehicle: sodium bicarbonate): 112 % of control
T/C (endpoint: mean survival time, dose: 29.0 mg/kg/injection, schedule: Q01DX001 (ip), vehicle: water): 111 % of control
T/C (endpoint: mean survival time, dose: 32.0 mg/kg/injection, schedule: Q01DX001 (ip), vehicle: sodium bicarbonate): 117 % of control
T/C (endpoint: mean survival time, dose: 39.0 mg/kg/injection, schedule: Q04DX003 (ip), vehicle: sodium bicarbonate): 115 % of control
T/C (endpoint: mean survival time, dose: 43.0 mg/kg/injection, schedule: Q01DX001 (ip), vehicle: water): 113 % of control
T/C (endpoint: mean survival time, dose: 64.0 mg/kg/injection, schedule: Q01DX001 (ip), vehicle: sodium bicarbonate): 121 % of control
T/C (endpoint: mean survival time, dose: 65.0 mg/kg/injection, schedule: Q04DX003 (ip), vehicle: sodium bicarbonate): 100 % of control
T/C (endpoint: mean survival time, dose: 128.0 mg/kg/injection, schedule: Q01DX001 (ip), vehicle: sodium bicarbonate): 109 % of control
T/C (endpoint: median survival time, dose: 0.5 mg/kg/injection, schedule: Q01DX009 (ip), vehicle: sodium bicarbonate): 102 % of control
T/C (endpoint: median survival time, dose: 1.0 mg/kg/injection, schedule: Q01DX009 (ip), vehicle: sodium bicarbonate): 113 % of control

O=P(NC12CC3CC(CC(C3)C1)C2)(N1CC1)N1CC1
T/C (endpoint: mean survival time, dose: 9.0 mg/kg/injection, schedule: Q04DX003 (ip), vehicle: Klucel (hydroxypropylcellulose) (HPC)): 112 % of control
T/C (endpoint: mean survival time, dose: 12.0 mg/kg/injection, schedule: Q01DX001 (ip), vehicle: Klucel (hydroxypropylcellulose) (HPC)): 109 % of control
T/C (endpoint: mean survival time, dose: 18.0 mg/kg/injection, schedule: Q01DX001 (ip), vehicle: Klucel (hydroxypropylcellulose) (HPC)): 117 % of control
